Source: patent US12448388B2, “PRMT5 inhibitors and uses thereof” (Gilead Sciences, Inc., priority 2023, dated 2025)
Converted amounts (≈) assume the structure as drawn. Read-outs that look alike come from different tables or passages of the source.

What was measured:
[1] = Pharmacokinetics in cassette in male Sprague-Dawley rats for Kp measurement; type: in vivo; conditions: 1 mg/kg, intravenous
Description: E.1 Test Animal: Male Sprague-Dawley Rats (225-300 g) with Indwelling Bilateral Jugular Vain Cannula (JVC/JVC) or Single Jugular Vein Cannula (JVC)
E.2 Pharmaceutical Formulation and Administration
Test compound was dissolved in the vehicle of 10% DMSO, 10% ethanol, 40% polyethylene glycol 300, and 40% propylene glycol to get 1 mg/mL test compound solution. The compound was administered by intravenous administration at a dose of 1 mL/kg. Fasting was not required.
• Anticoagulant: K2EDTA • Volume: approximately 225 μL blood at each bleed • Jugula vein via syringe and needle or another method (non-terminal samples) or exsanguination (cardiac puncture) under isoflurane (or CO2 inhalation if isoflurane is unavailable) anesthesia (terminal time points). Blood samples were collected into K2EDTA tubes • Tissue collection and processing: following the terminal blood collection, the brain and CSF were collected from each animal.

[2] = test system: HCT116 MTAP-deleted cell lines; assay: Cell viability assay (CellTiter-Glo, 7 days), HCT116 MTAP-deleted; type: cell-based; conditions: for Selectivity: HCT116 WT CC50 versus HCT116 MTAP^del CC50; for plasma-adjusted CC50 (paCC50): paCC50 = CC50-HCT116-MTAP^del * (% free CCM/% free human plasma); for CC50: Homo sapiens, HCT116 MTAP-deleted
Summary of the method: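 Dose-response, PRMT5 inhibitors from DMSO serial dilution, pre-spotted; cells seeded onto compound plates. 7 d, 37 °C/5% CO2/90% RH. Readout: CTG luminescence → CC50.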

[3] = PBS solubility (kinetic solubility from DMSO stocks); type: physicochemical; conditions: 22 °C, aqueous buffer, kinetic from dmso stock; 1x PBS pH 7.4, 1.0% DMSO, 24-hour incubation at ambient temperature
Summary of the method: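 Kinetic solubility in 1× PBS pH 7.4 with 1.0% final DMSO, maximum theoretical concentration 100 μM from 10 mM stock. After 24 h at ambient temperature (20.8-24.0 °C) the samples were vacuum-filtered and filtrates quantified by nitrogen detection against a calibration curve. Values were background-corrected and reported in μM and μg/mL.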

[4] = test system: Symmetric Di-methyl Arginine (SDMA) signal (PRMT5 inhibition) in HCT116 MTAP-deleted cells; assay: Symmetric di-methyl arginine image-based high content screen assay (SDMA assay), HCT116 MTAP-deleted; type: cell-based; conditions: for EC50 selectivity: HCT116 WT versus HCT116 MTAP-deleted; for EC50: Homo sapiens, HCT-116, HCT116 MTAP-deleted, class symbols
Summary of the method: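 Read-out is imaging of per-cell mean SDMA immunofluorescence (Alexa 488), with cells segmented by DAPI. Cells, MTAP-deleted or wild-type HCT116, were exposed to compound for 3 days at 37 °C before fixation. EC50 derived by 4-parameter non-linear logistic regression.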

[5] = brain Kp = [brain]/[plasma], rat, read-out: Rat brain Kp
[6] = brain Kpu,u = Kp * (plasma free/rat brain free), read-out: Rat brain Kpu,u
[7] = HCT-116, 168 h, 7 days of treatment, CTG, read-out: CC50-HCT116-MTAP^del
[8] = HCT-116, cell viability, class symbols, read-out: CC50

| SMILES | Kp [1, 5] | Kp [1, 6] | Selectivity [2] | plasma-adjusted CC50 (paCC50) ([2]; HCT-116) | CC50 [2, 7] | CC50 [2, 8] | solubility at 24 h [3] | EC50 selectivity [4] | EC50 [4] |
| --- | --- | --- | --- | --- | --- | --- | --- | --- | --- |
| Cc1ncc2c(N)nc3cnc(C(=O)N4CCC[C@@H]5Oc6cc(OC(F)(F)F)ccc6[C@@H]54)cc3n12 [Ff-340, (4-amino-1-methylimidazo[1,5-a]pyrido[3,4-e]pyrazin-8-yl)((4aS,9bS)-7-(trifluoromethoxy)-3,4,4a,9b-tetrahydrobenzofuro[3,2-b]pyridin-1(2H)-yl)methanone] | 0.2 | 0.06 | 107 | 298 nM | 23 nM | < 100 nM | < 1 µM | 135 | ≤ 1 nM |
| Nc1nc2ccc(C(=O)N3CCC[C@@H]4Oc5cc(C(F)(F)F)ccc5[C@@H]43)cc2n2cncc12 [Ff-111, (4-aminoimidazo[1,5-a]quinoxalin-8-yl)((4aS,9bS)-7-(trifluoromethyl)-3,4,4a,9b-tetrahydrobenzofuro[3,2-b]pyridin-1(2H)-yl)methanone] | 0.4 | 0.06 | 110 | 139 nM | 10 nM | < 100 nM | 1.1 µM (≈ 0.499 µg/mL) | 258 | ≤ 1 nM |
| Nc1nc2cnc(C(=O)N3CCC[C@@H]4Oc5cc(OC(F)(F)F)ccc5[C@@H]43)cc2n2cncc12 [Ff-341, (4-aminoimidazo[1,5-a]pyrido[3,4-e]pyrazin-8-yl)((4aS,9bS)-7-(trifluoromethoxy)-3,4,4a,9b-tetrahydrobenzofuro[3,2-b]pyridin-1(2H)-yl)methanone] | 0.37 | 0.11 | 79 | 150 nM | 9 nM | < 100 nM | 1.7 µM (≈ 0.8 µg/mL) | 145 | ≤ 1 nM |
| C[C@@H]1CN(C(=O)c2cc3c(cc2F)nc(N)c2cncn23)[C@H]2c3ccc(OC(F)(F)F)cc3C[C@H]2O1 (single isomer, unassigned) [Ff-183] | 0.41 | 0.06 | 57 | 257 nM | 15 nM | < 100 nM | 1.6 µM (≈ 0.802 µg/mL) | 117 | ≤ 1 nM |
